Data taken from patent US8329683B2 (Nexgenix Pharmaceuticals, LLC, priority 2006, dated 2012).
Read-outs that look alike come from different tables or passages of the source. Blank lines part the entries; values can stand above or below the molecule they belong to.

What was measured:
[1] = toluene
[2] = rcm bond, 14-membered ring, Grubbs II (10 mol%), toluene, 2.0 mM, 80.0 °C
phospho-Akt = assay: Western blot of phospho-Akt in Nf2-/- mouse Schwann cells; assay type: cell-based; settings: 0.02 μM, 0.5 μM, 24 hours, dose- and time-dependent
Source text: (§1) It has been shown that inhibition of HSP90 function in breast cancer cells causes down-regulation of Akt (Basso et al., 2002, J. Biol. Chem. 277(42): 39858-39866). The inventors of the present invention have determined that phospho-Akt levels are elevated in Nf1−/− mouse Schwann cells, NF2 defient human schwannomas, NF2-deficient meningioma xenografts, NF2-deficient mesothelioma xenografts as compared to wild-type mouse Schwann cells and/or normal human peripheral nerves (reference is made to PCT/US2007/70366 application entitled “Treatment of Neurofibromatosis with Inhibitors of a Signal Transduction Pathway,” filed on Jun. 4, 2007, which is herein incorporated by reference in its entirety). To assess the effect of HSP90 inhibitors on phospho-Akt in NF2 deficient cells, Western blots were prepared from Nf2−/− mouse Schwann cells as an example. The cells were treated with 0.02 μM, 0.5 μM NXD30001 for 24 hours. As control the same cells were treated with vehicle DMSO for 24 hours. […] The loss of phospho-Akt was both dose- and time-dependent.

ErbB2 = assay: Western blot of ErbB2 in NF2-deficient cells; assay type: cell-based, mouse and human; settings: NF2-deficient cells (Nf2-/- mouse Schwann, meningioma, mesothelioma); dose- and time-dependent
Source text: (§2) It has been shown that inhibition of HSP90 function in breast cancer cells causes down-regulation of Akt (Basso et al., 2002, J. Biol. Chem. 277(42): 39858-39866). The inventors of the present invention have determined that phospho-Akt levels are elevated in Nf1−/− mouse Schwann cells, NF2 defient human schwannomas, NF2-deficient meningioma xenografts, NF2-deficient mesothelioma xenografts as compared to wild-type mouse Schwann cells and/or normal human peripheral nerves (reference is made to PCT/US2007/70366 application entitled “Treatment of Neurofibromatosis with Inhibitors of a Signal Transduction Pathway,” filed on Jun. 4, 2007, which is herein incorporated by reference in its entirety). To assess the effect of HSP90 inhibitors on phospho-Akt in NF2 deficient cells, Western blots were prepared from Nf2−/− mouse Schwann cells as an example. The cells were treated with 0.02 μM, 0.5 μM NXD30001 for 24 hours. […]
(§3) To assess the effect of the compounds of the present invention on ErbB2 and c-Raf in NF2-deficient cells, Western blots were prepared from various NF2-deficient cells, including Nf2−/− mouse Schwann cells, NF2-deficient meningioma cells, and NF2-deficient mesothelioma cells. […] The inventors of the present invention have determined that treatment of NF2-deficient cells with NXD30001 caused a decline of both ErbB2 and c-Raf levels (FIG. 1A). […]

c-Raf [3] = assay: Western blot of c-Raf in NF2-deficient cells; assay type: cell-based, mouse and human; settings: NF2-deficient cells (Nf2-/- mouse Schwann, meningioma, mesothelioma); dose- and time-dependent
Source text: as §2, §3

HSP70 = assay: Western blot of HSP70 in NF2-deficient cells; assay type: cell-based, mouse and human; settings: dose-dependent
Source text: as §1
To assess the effect of the compounds of the present invention on HSP70 in NF2-deficient cells, Western blots were prepared from various NF2-deficient cells, including […], NF2-deficient schwannoma cells, NF2-deficient meningioma cells, and NF2-deficient mesothelioma cells. […]

Akt = assay: Immunoblot of client protein degradation in ST88-14 MPNST cells; assay type: cell-based, human; settings: ST88-14 cells, 24 hr treatment, 8-1000 nM; read-out: IC50 of induced degradation of Akt
Procedure: (§4) Ras-Raf-Mek-Erk1/2 pathway is activated due to the loss of NF1 in these cells. In addition, EGFR is overexpressed in a number of NF1-deficient human and mouse cells. Human malignant peripheral nerve sheath tumor (MPNST) cell ST88-14 was treated with increasing concentration (8-1000 nM) of NXD30001 for 24 hr. Cells were lysed and clarified lysates were subjected SDS-PAGE, followed by immunoblot analysis using indicated antibodies. […] Equal lysate protein loading is shown by actin immunoblot.

Cdk4 = assay: as above; assay type: cell-based, human; settings: ST88-14 cells, 24 hr treatment, 8-1000 nM; read-out: IC50 of induced degradation of Cdk4
Procedure: as §4

EGFR = assay: as above; assay type: cell-based, human; settings: ST88-14 cells, 24 hr treatment, 8-1000 nM; read-out: IC50 of induced degradation of EGFR
Procedure: as §4

c-Raf [4] = assay: as above; assay type: cell-based, human; settings: ST88-14 cells, 24 hr treatment, 8-1000 nM; read-out: IC50 of induced degradation of c-Raf
Procedure: as §4

[5] = test system: NF1- and NF2-deficient human and mouse cells; assay: Cell proliferation assay (ATPlite); assay type: cell-based; settings: 3 days culture; IC50 values only in FIG. 3
Procedure: Inhibitors of HSP90 function is assayed for the ability to decrease the number of NF2 deficient tumor cells in a tumor, i.e., shrink a tumor, or reduce the proliferation of NF2 deficient tumor cells. The ability of inhibitors to decrease the number of NF2 deficient tumor cells in a sample or reduce proliferation of NF2 deficient tumor cells is assessed using a variety of methods known in the art. A small library of compounds of the present invention (total 14 oxime compounds) were assayed for inhibition of proliferation of NF1- and NF2-deficient cells. Cells used are Nf2−/− mouse embryonic stem cell (MESC), NF2-deficient human SF1335 meningioma cells, NF2-deficient HEI193 schwanoma cells, NF2-deficient BAR and RAV mesothelioma cells, NF2-plus BLA mesothelioma cells, and NF1-deficient human malignant peripheral nerve sheath tumor (MPNST) cells. Appropriate number of cells that can reach ˜70% confluence in 3 days (2000-6000 cells/well) were plated in 96-well plates. Various concentrations of each compound were added to the growing media and the cells were then cultured for 3 days. A positive control compound (17-AAG) and a vehicle (DMSO) control were included with each assay. […] Viable cells were measured by detecting luminescence generated from reaction of ATPlite solution and the ATP in the cells.

HSP90 = HSP90 affinity in a competition assay with geldanamycin; assay type: binding
[6] = cited from earlier work

SMILES: CCOCOc1cc(OCOCC)c2c(c1Cl)CC(=NOCC(=O)N1CCCCC1)C=CCCC=CCCOC2=O
ring closure, yield of all isomers ([1]; from CCOCOc1cc(OCOCC)c(C(=O)O)c(CC(C=CCCC=CCCO)=NOCC(=O)N2CCCCC2)c1Cl, ester bond, PPh3/DIAD, 30.9 mM, 23.0 °C, 5.0 h): 60%

SMILES: CCOCOc1cc(OCOCC)c2c(c1Cl)CC(=O)C=CCCC=CCC(C)OC2=O (stereo not shown)
ring closure, isolated yield [2]: 94%

SMILES: CCOCOc1cc(OCOCC)c2c(c1Cl)CC(=O)C=CCCC=CC[C@@H](C)OC2=O
ring closure, yield of all isomers ([1]; from C=CCCC=CC(=O)Cc1c(Cl)c(OCOCC)cc(OCOCC)c1C(=O)O[C@H](C)CC=C, rcm bond, Grubbs II, 2.0 mM, 80.0 °C): 94%

SMILES: CCOCOc1cc2c(c(OCOCC)c1)C(=O)OC(C)CC=CCCC=CC(=O)C2 (stereo not shown)
ring closure, isolated yield ([2]; 2 steps): 40%

SMILES: CCOCOc1cc2c(c(OCOCC)c1)C(=O)O[C@H](C)CC=CCCC=CC(=O)C2
ring closure, yield of all isomers ([1]; from C=CCCC=CC(=O)Cc1cc(OCOCC)cc(OCOCC)c1C(=O)O[C@H](C)CC=C, rcm bond, Grubbs II, 2.0 mM, 80.0 °C, 2 steps): 40%

SMILES: C[C@@H]1CC=CCC/C=C/C(=O)Cc2c(Cl)c(OCOCC[Si](C)(C)C)cc(OCOCC[Si](C)(C)C)c2C(=O)O1
ring closure, yield of all isomers ([1]; from C=CCC/C=C/C(=O)Cc1c(Cl)c(OCOCC[Si](C)(C)C)cc(OCOCC[Si](C)(C)C)c1C(=O)O[C@H](C)CC=C, rcm bond, Grubbs II, 2.0 mM, 80.0 °C, 12.0 h): 87%

SMILES: C[C@@H]1CC=CCC/C=C/C(=O)Cc2c(Cl)c(O[Si](C)(C)C(C)(C)C)cc(O[Si](C)(C)C(C)(C)C)c2C(=O)O1
ring closure, yield of all isomers ([1]; from C=CCC/C=C/C(=O)Cc1c(Cl)c(O[Si](C)(C)C(C)(C)C)cc(O[Si](C)(C)C(C)(C)C)c1C(=O)O[C@H](C)CC=C, rcm bond, Grubbs II, 2.0 mM, 80.0 °C, 12.0 h): 87%

IC50 (Akt): ~100 nM
IC50 (Cdk4): ~100 nM
IC50 (EGFR): ~100 nM
IC50 (c-Raf [4]): ~100 nM
SMILES: O=C1OCC/C=C/CC/C=C/C(=N/OCC(=O)N2CCCCC2)Cc2c(Cl)c(O)cc(O)c21 [NXD30001]
phospho-Akt levels (phospho-Akt): decline of phospho-Akt levels
ErbB2 levels (ErbB2): decline
c-Raf levels (c-Raf [3]): decline
HSP70 protein level (HSP70): upregulation of HSP70
inhibition of cell proliferation [5]: Inhibit Proliferation

SMILES: C[C@@H]1CC2O[C@@H]2CC/C=C/C(=O)Cc2c(Cl)c(O)cc(O)c2C(=O)O1 (stereo partly shown) [pochonin A]
IC50 (HSP90): 90 nM

IC50 (HSP90): 80 nM
SMILES: C[C@@H]1C/C=C/CC/C=C/C(=O)Cc2c(Cl)c(O)cc(O)c2C(=O)O1 [pochonin D]

SMILES: C[C@@H]1C[C@H]2O[C@@H]2/C=C\C=C\C(=O)Cc2c(Cl)c(O)cc(O)c2C(=O)O1 [radicicol, Radicicol, reference compound]
in vivo anti-tumor activity [6]: no in vivo anti-tumor activity
